Test results published in US10287301B2 (Achillion Pharmaceuticals, Inc., priority 2015, dated 2019).
Like-named read-outs stand apart in the source and are kept apart here.

Target: Human Factor D (Homo sapiens (Human), UniProt P00746)
Assay: Human Factor D Assay
Type: biochemical
In short: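 IC50 values derive from nonlinear regression of Factor D reaction rates against compound concentration. The enzyme, purified from human serum, is used at 80 nM final with a 5 min room-temperature compound preincubation in 50 mM Tris, 1M NaCl, pH 7.5, before 100 μM Z-L-Lys-SBzl plus 100 μM DTNB are added.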

[1] = Human Factor D, Table 3, read-out: IC50
[2] = Human Factor D 80 nM, substrate Z-L-Lys-SBzl, read-out: IC50
[3] = Human Factor D assay of Example 8, Table 2, read-out: IC50
[4] = Table 3, Human Factor D 80 nM, substrate Z-L-Lys-SBzl, read-out: IC50 (Stars)

Human Factor D, sequence (P00746 26-253): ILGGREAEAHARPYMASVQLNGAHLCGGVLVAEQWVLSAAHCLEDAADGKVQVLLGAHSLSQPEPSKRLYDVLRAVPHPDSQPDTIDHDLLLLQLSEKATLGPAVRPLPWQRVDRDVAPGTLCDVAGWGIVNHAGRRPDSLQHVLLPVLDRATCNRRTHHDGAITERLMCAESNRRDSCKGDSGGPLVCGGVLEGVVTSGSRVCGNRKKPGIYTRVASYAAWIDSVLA

CC(=O)c1nn(CC(=O)N2CCCC[C@H]2C(=O)Nc2cccc(Br)n2)c2ccc(-c3cnc(C)nc3)cc12 [Compound 593, (S)-1-(2-(3-Acetyl-5-(2-methylpyrimidin-5-yl)-1H-indazol-1-yl)acetyl)-N-(6-bromopyridin-2-yl)piperidine-2-carboxamide]
IC50 [1]: < 1000 nM

CC(=O)c1cn(CC(=O)N2C[C@H](F)C[C@H]2C(=O)Nc2nc(-c3ccccc3Cl)ns2)c2ccc(-c3ccnnc3)cc12 [Compound 99, (2S,4R)-1-(2-(3-acetyl-5-(pyridazin-4-yl)-1H-indol-1-yl)acetyl)-N-(3-(2-chlorophenyl)-1,2,4-thiadiazol-5-yl)-4-fluoropyrrolidine-2-carboxamide]
IC50 [2]: < 1000 nM

CC(=O)c1nn(CC(=O)N2C[C@H](F)C[C@H]2C(=O)Nc2cccc(OC(F)(F)F)c2F)c2ccc(-c3cnc4cc(C)nn4c3)cc12 [Compound 256, (2S,4R)-1-(2-(3-acetyl-5-(2-methylpyrazolo[1,5-a]pyrimidin-6-yl)-1H-indazol-1-yl)acetyl)-4-fluoro-N-(2-fluoro-3-(trifluoromethoxy)phenyl)pyrrolidine-2-carboxamide]
IC50 [3]: < 1000 nM

CC(=O)c1cn(CC(=O)N2C[C@H](F)C[C@H]2C(=O)NCCCCc2ccccc2)c2ccc(-c3cnc(C)nc3)cc12 [Compound 461, (2S,4R)-1-(2-(3-Acetyl-5-(2-methylpyrimidin-5-yl)-1H-indol-1-yl)acetyl)-4-fluoro-N-(4-phenylbutyl)pyrrolidine-2-carboxamide]
IC50 [4]: < 1000 nM

CC(=O)c1cn(CC(=O)N2C[C@H](F)C[C@H]2C(=O)Nc2cccc(-c3ccccc3Cl)c2F)c2ccc(-c3cnc(C(=O)O)nc3)cc12 [Compound 205, 5-(3-acetyl-1-(2-((2S,4R)-2-(2′-chloro-2-fluorobiphenyl-3-ylcarbamoyl)-4-fluoropyrrolidin-1-yl)-2-oxoethyl)-1H-indol-5-yl)pyrimidine-2-carboxylic acid]
IC50 [3]: < 1000 nM

NC(=O)c1nn(CC(=O)N2C[C@H](F)C[C@H]2C(=O)Nc2cc(O)ccn2)c2ccc(-c3ccnnc3)cc12 [Compound 154, 1-(2-((2S,4R)-4-fluoro-2-(4-hydroxypyridin-2-ylcarbamoyl)pyrrolidin-1-yl)-2-oxoethyl)-5-(pyridazin-4-yl)-1H-indazole-3-carboxamide]
IC50 [2]: > 10000 nM

CC(=O)c1nn(CC(=O)N2[C@@H](C)CC[C@H]2C(=O)Nc2nc(Br)ccc2C)c2ccc(-c3cnc(C)nc3)cc12 [Compound 646, (2S,5S)-1-(2-(3-Acetyl-5-(2-methylpyrimidin-5-yl)-1H-indazol-1-yl)acetyl)-N-(6-bromo-3-methylpyridin-2-yl)-5-methylpyrrolidine-2-carboxamide]
IC50 [1]: < 1000 nM

CC(=O)c1cn(CC(=O)N2C[C@H](F)C[C@H]2C(=O)Nc2cccc(Br)n2)c2ccc(-c3cnc(O[C@@H]4CO[C@H]5[C@@H]4OC[C@H]5O)nc3)cc12 [Compound 334, (2S,4R)-1-(2-(3-acetyl-5-(2-(((3R,3aR,6R,6aR)-6-hydroxyhexahydrofuro [3,2-b]furan-3-yl)oxy)pyrimidin-5-yl)-1H-indol-1-yl)acetyl)-N-(6-bromopyridin-2-yl)-4-fluoropyrrolidine-2-carboxamide]
IC50 [4]: < 1000 nM

CSc1ncc(-c2ccc3c(c2)c(C(C)=O)nn3CC(=O)N2C[C@H](F)C[C@H]2C(=O)Nc2cccc(Br)n2)cn1 [Compound 531, (2S,4R)-1-(2-(3-Acetyl-5-(2-(methylthio)pyrimidin-5-yl)-1H-indazol-1-yl)acetyl)-N-(6-bromopyridin-2-yl)-4-fluoropyrrolidine-2-carboxamide]
IC50 [4]: < 1000 nM

CC(=O)c1cn(CC(=O)N2C[C@H](F)C[C@H]2C(=O)Nc2cccc(O)n2)c2ccc(-c3ccnnc3)cc12 [Compound 144, (2S,4R)-1-(2-(3-acetyl-5-(pyridazin-4-yl)-1H-indol-1-yl)acetyl)-4-fluoro-N-(6-hydroxypyridin-2-yl)pyrrolidine-2-carboxamide]
IC50 [2]: > 10000 nM

COC(=O)c1cc(Cl)nc(NC(=O)[C@@H]2C[C@@H](F)CN2C(=O)Cn2nc(C(C)=O)c3cc(-c4cnc(C)nc4)ccc32)c1 [Compound 396, Methyl 2-((2S,4R)-1-(2-(3-Acetyl-5-(2-methylpyrimidin-5-yl)-1H-indazol-1-yl)acetyl)-4-fluoropyrrolidine-2-carboxamido)-6-chloroisonicotinate]
IC50 [4]: < 1000 nM

CC(=O)c1cn(CC(=O)N2C[C@H](F)C[C@H]2C(=O)Nc2cccc(-c3ccccc3Cl)c2F)c2ccc(-c3cnc(N)nc3)cc12 [Compound 215, (2S,4R)-1-(2-(3-acetyl-5-(2-aminopyrimidin-5-yl)-1H-indol-1-yl)acetyl)-N-(2′-chloro-2-fluorobiphenyl-3-yl)-4-fluoropyrrolidine-2-carboxamide]
IC50 [3]: < 1000 nM

CC(=O)c1cn(CC(=O)N2C[C@H](F)C[C@H]2C(=O)Nc2ccc(O)cn2)c2ccc(-c3ccnnc3)cc12 [Compound 175, (2S,4R)-1-(2-(3-acetyl-5-(pyridazin-4-yl)-1H-indol-1-yl)acetyl)-4-fluoro-N-(5-hydroxypyridin-2-yl)pyrrolidine-2-carboxamide]
IC50 [2]: > 10000 nM

CC(=O)Nc1ncc(-c2ccc3c(c2)c(C(C)=O)nn3CC(=O)N2C[C@H](F)C[C@H]2C(=O)Nc2cccc(Br)n2)cn1 [Compound 597, (2S,4R)-1-(2-(5-(2-Acetamidopyrimidin-5-yl)-3-acetyl-1H-indazol-1-yl)acetyl)-N-(6-bromopyridin-2-yl)-4-fluoropyrrolidine-2-carboxamide]
IC50 [1]: < 1000 nM

Cc1ccnn1-c1ccccc1NC(=O)[C@@H]1C[C@@H](F)CN1C(=O)Cn1nc(C(N)=O)c2cc(-c3ccnnc3)ccc21 [Compound 71, 1-(2-((2S,4R)-4-fluoro-2-(2-(5-methyl-1H-pyrazol-1-yl)phenylcarbamoyl)pyrrolidin-1-yl)-2-oxoethyl)-5-(pyridazin-4-yl)-1H-indazole-3-carboxamide]
IC50 [2]: > 10000 nM

CC(=O)c1nn(CC(=O)N2CC[C@H]2C(=O)Nc2cccc(C)n2)c2ccc(-c3cccc(C#N)c3)cc12 [Compound 547, (S)-1-(2-(3-Acetyl-5-(3-cyanophenyl)-1H-indazol-1-yl)acetyl)-N-(6-methylpyridin-2-yl)azetidine-2-carboxamide]
IC50 [1]: > 10000 nM

CC(=O)c1nn(CC(=O)N2C[C@H](F)C[C@H]2C(=O)Nc2cccc(Br)n2)c2ccc(-c3cnn4c3CCC4)cc12 [Compound 693, (2S,4R)-1-(2-(3-Acetyl-5-(5,6-dihydro-4H-pyrrolo[1,2-b]pyrazol-3-yl)-1H-indazol-1-yl)acetyl)-N-(6-bromopyridin-2-yl)-4-fluoropyrrolidine-2-carboxamide]
IC50 [1]: < 1000 nM

CC(=O)c1cn(CC(=O)N2C[C@H](F)C[C@H]2C(=O)Nc2cccc(-c3ccccc3Cl)c2F)c2ccc(-c3cnc(O[C@@H]4CO[C@H]5[C@@H]4OC[C@H]5O)nc3)cc12 [Compound 333, (2S,4R)-1-(2-(3-acetyl-5-(2-(((3R,3aR,6R,6aR)-6-hydroxyhexahydrofuro [3,2-b]furan-3-yl)oxy)pyrimidin-5-yl)-1H-indol-1-yl)acetyl)-N-(2′-chloro-2-fluoro-[1,1′-biphenyl]-3-yl)-4-fluoropyrrolidine-2-carboxamide]
IC50 [4]: < 1000 nM

CC(=O)c1nn(CC(=O)N2C[C@H](F)C[C@H]2C(=O)NCC2CC2(Cl)Cl)c2ccc(-c3cnc(C)nc3)cc12 (stereo partly drawn) [Compound 459, (2S,4R)-1-(2-(3-acetyl-5-(2-methylpyrimidin-5-yl)-1H-indazol-1-yl)acetyl)-N-((2,2-dichlorocyclopropyl)methyl)-4-fluoropyrrolidine-2-carboxamide]
IC50 [4]: < 1000 nM

NC(=O)c1nn(CC(=O)N2C[C@H](F)C[C@H]2C(=O)N[C@@H]2CCC[C@H]2O)c2ccc(-c3ccnnc3)cc12 [Compound 145, 1-(2-((2S,4R)-4-fluoro-2-((1R,2R)-2-hydroxycyclopentylcarbamoyl)pyrrolidin-1-yl)-2-oxoethyl)-5-(pyridazin-4-yl)-1H-indazole-3-carboxamide]
IC50 [2]: > 10000 nM

CN1CC=C(c2ccc3c(c2)c(C(N)=O)nn3CC(=O)N2C[C@H](F)C[C@H]2C(=O)Nc2cccc(Br)n2)CC1 [Compound 22, 1-(2-((2S,4R)-2-(6-bromopyridin-2-ylcarbamoyl)-4-fluoropyrrolidin-1-yl)-2-oxoethyl)-5-(1-methyl-1,2,3,6-tetrahydropyridin-4-yl)-1H-indazole-3-carboxamide]
IC50 [2]: < 1000 nM

CC(=O)c1cn(CC(=O)N2C[C@H](F)C[C@H]2C(=O)Nc2cccc(-c3ccccc3Cl)c2F)c2ccc(-c3ccnnc3)cc12 [Compound 20, (2S,4R)-1-(2-(3-Acetyl-5-(pryridazin-4-yl)-1H-indol-1-yl)acetyl)-N-(2′-chloro-2-fluoro-[1,1′-biphenyl]-3-yl)-4-fluoropyrrolidine-2-carboxamide]
IC50 [2]: < 1000 nM

CC(=O)c1nn(CC(=O)N2C[C@H](F)C[C@H]2C(=O)Nc2cccc(Br)n2)c2ccc(-c3cnc(O)nc3)cc12 [Compound 604, (2S,4R)-1-(2-(3-Acetyl-5-(2-hydroxypyrimidin-5-yl)-1H-indazol-1-yl)acetyl)-N-(6-bromopyridin-2-yl)-4-fluoropyrrolidine-2-carboxamide]
IC50 [1]: < 1000 nM

CC(=O)c1cn(CC(=O)N2C[C@H](F)C[C@H]2C(=O)NCc2cccc(Cl)c2F)c2ccc(-c3cnc(C)nc3)cc12 [Compound 135, (2S,4R)-1-(2-(3-acetyl-5-(2-methylpyrimidin-5-yl)-1H-indol-1-yl)acetyl)-N-(3-chloro-2-fluorobenzyl)-4-fluoropyrrolidine-2-carboxamide]
IC50 [2]: < 1000 nM

CC(=O)c1nn(CC(=O)N2C[C@H](F)C[C@H]2C(=O)Nc2cncc(C(F)(F)F)n2)c2ccc(-c3cnc4cc(C)nn4c3)cc12 [Compound 313, (2S,4R)-1-(2-(3-acetyl-5-(2-methylpyrazolo[1,5-a]pyrimidin-6-yl)-1H-indazol-1-yl)acetyl)-4-fluoro-N-(6-(trifluoromethyl)pyrazin-2-yl)pyrrolidine-2-carboxamide]
IC50 [3]: < 1000 nM
